Experiments:
CEM cells = experiment: Anti-proliferative activity, CEM lymphoblastic leukemia cells (Coulter counting); assay type: cell-based; settings: Homo sapiens, CCRF-CEM; mean ± SD of three independent experiments; 96 h; read-out: Tumor cells IC50 CEM
From the text: (§1) The anti-proliferative activity of the synthesized benzofurane derivatives was studied in three human cancer cell lines [breast carcinoma (MDA-MB-231), lymphoblastic leukemia (CEM) and cervical carcinoma (HeLa) cells] and one endothelial cell line [human microvascular endothelial cells (HMEC-1)].
(§2) The human microvascular endothelial cell line HMEC-1 was obtained at passage 12 from the Centers for Disease Control and Prevention (Atlanta, GA, USA) and used from passage 17 till 27. Human breast carcinoma (MDA-MB-231), human cervical carcinoma (HeLa) and human T-lymphoid (CEM) cells were obtained from ATCC (Middlesex, UK). Cell lines were maintained in culture for up to 3 months and grown in DMEM, supplemented with 10% FBS, 0.01 M Hepes and 1 mM sodium pyruvate. All cells were cultured in a humidified 5% CO2 incubator at 37 °C.
(§3) HMEC-1 cells were seeded in 48-well plates at 20,000 cells/well. After 24 h, 5-fold dilutions of the compounds were added. The cells were allowed to proliferate 4 days in the presence of the compounds, trypsinized, and counted by means of a Coulter counter (Analis, Belgium). HeLa and MDA-MB-231 cells were seeded in 48-well plates at 10,000 cells/well. After 24 h, different concentrations of the compounds were added. After 3 days of incubation, the cells were trypsinized and counted in a Coulter counter. Suspension cells (human lymphoid Cem cells) were seeded in 96-well plates at 60,000 cells/well in the presence of different concentrations of the compounds, allowed to proliferate for 96 h, and counted in a Coulter counter. The 50% inhibitory concentration (IC50) was defined as the compound concentration required to reduce cell proliferation by 50%.

HMEC-1 cells = experiment: Disruption of a preformed vascular network on matrigel (tube formation); assay type: cell-based, human
Description: (§4) Figure 6 Mechanism of action of the benzofurane derivatives. (A) Inhibition of cell cycle progression. MDA-MB-231 cells were treated with DMSO (control) or compounds 8, 27 or 28 for 24 h. Next, the cells were harvested, stained with propidium iodide (PI), and cell cycle distribution was evaluated by flow cytometry. Percentages of cells in the different phases of the cell cycle are indicated. (B) Caspase-3 activity. MDA-MB-231 cells were seeded in 48-well plates at 40,000 cells/cm². After 24 h, different concentrations of compounds 8, 27 or 28 and 2 µM of the caspase-3 substrate DEVD-NucView488 were added. After 16 h, the cells were incubated with 2 µg/ml Hoechst 33342 to stain the nucleus, and imaged. (C) Disruption of the vascular network. HMEC-1 cells were cultured on matrigel for 3 h to allow the formation of tube-like structures. Next, different concentrations of compounds were added. Upper panel: After 90 min, pictures were taken and the tubular network was scored (3: intact network, 0: network completely destroyed). Bars show average ± SEM (n = 4). Lower panel: Microscopic pictures of the tubular network 3 h after addition of compound.
Another feature of colchicine-site binding agents is their ability to destroy a 3-dimensional network of endothelial cells. To determine the vascular disrupting capacity of compounds 27 and 28, HMEC-1 cells were seeded on top of matrigel. This tumor derived extracellular matrix induces within 3 h the rearrangement of endothelial cells into a vascular network. Compounds 27 and 28 caused a disruption of the tubular network in a concentration-dependent manner (Fig. 6C).
Wells of a 96-well plate were coated with 70 µl matrigel (10 mg/ml, BD Biosciences, Heidelberg, Germany) at 4 °C. After gelatinization at 37 °C during 30 min, HMEC-1 cells were seeded at 60,000 cells/well on top of the matrigel in 200 µl DMEM containing 10% FCS. After 3 h of incubation at 37 °C, when the endothelial cells had reorganized to form tube-like structures, the compounds were added. Ninety minutes later, the cultures were photographed at 100 × magnification and analyzed using digitalized analysis.

A2780AD cells = experiment: Anti-proliferative activity, A2780AD (MDR overexpressing P-glycoprotein) ovarian carcinoma cells; assay type: cell-based, human; settings: Homo sapiens, A2780AD; P-glycoprotein overexpressing resistant line; mean ± standard error of three independent experiments; read-out: A2780 AD IC50
From the text: (§5) One of the most relevant causes of tumor resistance to chemotherapy is the overexpression of membrane pumps which remove the chemotherapeutic agents from the treated cells.

HeLa cells = experiment: Anti-proliferative activity, HeLa cervical carcinoma cells (Coulter counting); assay type: cell-based; settings: Homo sapiens, 72 h, mean ± SD of three independent experiments, 3 days of incubation, read-out: Tumor cells IC50 HeLa
From the text: as §1, §2, §3

MDA-MB-231 cells [1] = experiment: Caspase-3 activity / apoptosis in live cells (fluorescence microscopy); assay type: cell-based, human; settings: 1 µM, after 24 h
Description: as §4
To confirm the capacity of compounds 27 and 28 to induce apoptosis, MDA-MB-231 cells were treated with the compounds for 24 h in the presence of NucView® 530 Caspase-3. This substrate is cleaved by active caspase-3 activity (the main executioner enzyme during apoptosis) to generate a fluorescent derivative that is analyzed using fluorescence microscopy.
MDA-MB-231 cells were seeded at 40,000 cells/cm². After 24 h, cells were incubated in Fluorobrite DMEM (Gibco), containing the compound and 2 µM of the caspase-3 substrate DEVD-NucView488 (Biotium, Hayward, CA). After 16 h, the DNA was stained with Hoechst33342 and the cells were imaged by fluorescence microscopy.

MDA-MB-231 cells [2] = experiment: Cell cycle analysis (propidium iodide, flow cytometry); assay type: cell-based, human; settings: 24 h treatment
Description: Tubulin-binding agents interfere with mitotic spindle formation during cell division. […] Thus, we investigated whether 27 and 28 affect the progression of human breast cancer MDA-MB-231 cells through the cell cycle. […] In contrast, compounds 27 and 28 arrested the cell cycle in the M phase (mitosis) at concentrations as low as 0.03 and 0.1 μM (for compound 27 and 28 respectively).
as §4
MDA-MB-231 cells were seeded in 6-well plates at 125,000 cells/well in DMEM with 10% FBS. After 24 h, the cells were exposed to different concentrations of the compounds. After 24 h, the DNA of the cells was stained with propidium iodide using the CycleTEST PLUS DNA Reagent Kit (BD Biosciences, San Jose, CA). The DNA content of the stained cells was assessed by flow cytometry on a FACSCalibur flow cytometer and analyzed with CellQuest software (BD Biosciences) within 3 h after staining. Cell debris and clumps were excluded from the analysis by appropriate dot plot gating. Percentages of sub-G1, G1, S, and G2/M cells were estimated using appropriate region markers.

MDA-MB-231 cells [3] = experiment: Anti-proliferative activity, MDA-MB-231 breast carcinoma cells (Coulter counting); assay type: cell-based; settings: Homo sapiens, MDA-MB-231, 72 h; mean ± SD of three independent experiments; 3 days of incubation; read-out: Tumor cells IC50 MDA-MB-231
From the text: as §1, §2, §3

A2780 cells = experiment: Anti-proliferative activity, A2780 ovarian carcinoma cells; assay type: cell-based, human; settings: Homo sapiens, A2780; mean ± standard error of three independent experiments
From the text: as §5

Structure (SMILES) | IC50 (CEM cells) | disruption of the vascular (tubular) network (HMEC-1 cells; 0.01 μM) | disruption of the vascular (tubular) network (HMEC-1 cells; 0.1 μM) | IC50 (A2780AD cells) | IC50 (HeLa cells) | apoptotic rate (apoptotic cells, caspase-3 substrate) (MDA-MB-231 cells [1]) | cells in the sub-G1 phase (indicative of apoptosis) (MDA-MB-231 cells [2]) | lowest concentration arresting the cell cycle in the M phase (MDA-MB-231 cells [2]) | IC50 (MDA-MB-231 cells [3]) | IC50 (A2780 cells)
COCc1cc2cccc(NC(C)=C3C(=O)CC(c4ccccc4)CC3=O)c2o1 (centres unmarked) [Compound 27, 2-(1-((2-(Methoxymethyl)benzofuran-7-yl)amino)ethylidene)-5-phenylcyclohexane-1,3-dione] | 31 ± 2 nM | antivascular effect was still evident | nearly completely abrogated the vascular network | 39 ± 15 nM | 30 ± 2 nM | ~ 30% | caused an increase of cells in the sub-G1 phase | 0.03 µM | 9 ± 1 nM | 23 ± 2 nM
CC(Nc1cccc2cc(COCCCO)oc12)=C1C(=O)CC(c2ccccc2)CC1=O (centres unmarked) [Compound 28, 2-(1-((2-((3-Hydroxypropoxy)methyl)benzofuran-7-yl)amino)ethylidene)-5-phenylcyclohexane-1,3-dione] | 51 ± 18 nM | antivascular effect was still evident | nearly completely abrogated the vascular network | 76 ± 15 nM | 34 ± 3 nM | ~40% | caused an increase of cells in the sub-G1 phase | 0.1 µM | 12 ± 5 nM | 38 ± 7 nM
